Source: ChEMBL document CHEMBL1125213 (J Med Chem, 1991)

Columns and labels:
[1] = molecular target: T1, Adenosine receptor A1 (Rattus norvegicus, UniProt P25099); assay: Binding affinity against adenosine A1 receptor in rat cortex by using [3H]- PIA as a radioligand; format: tissue-based
T1 sequence (P25099 whole entry): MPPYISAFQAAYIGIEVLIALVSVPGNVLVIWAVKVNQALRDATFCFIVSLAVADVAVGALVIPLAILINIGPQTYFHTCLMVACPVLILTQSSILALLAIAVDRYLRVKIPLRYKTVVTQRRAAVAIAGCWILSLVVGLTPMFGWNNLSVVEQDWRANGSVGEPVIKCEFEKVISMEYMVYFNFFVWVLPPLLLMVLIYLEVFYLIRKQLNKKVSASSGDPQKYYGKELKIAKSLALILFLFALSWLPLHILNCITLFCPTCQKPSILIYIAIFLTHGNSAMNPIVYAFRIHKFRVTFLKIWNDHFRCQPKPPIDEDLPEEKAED

[2] = molecular target: Adenosine receptors; A1 & A2 (Rattus norvegicus) (UniProt P29276+P25099+P30543); assay: It is the ratio of Ki value of A1 receptor to that of A2 receptor.; format: protein assay
[3] = molecular target: T2, Adenosine receptor A1 (Rattus norvegicus) (UniProt P25099); conditions: 100 uM
T2 sequence (whole entry): T1 sequence (P25099 whole entry)
Description: Inhibition of [3H]PIA binding to adenosine A1 receptor of rat cortex at 100 uM

[4] = Hydrophobicity index; format: ADME
[5] = molecular target: T3, Adenosine A2 receptor (Rattus norvegicus, UniProt P29276+P30543); assay: Tested for inhibition of rat PC12 adenylate cyclase stimulation by using NECA as a radioligand; format: cell-based; conditions: pc-12
[6] = molecular target: T3, Adenosine A2 receptor; assay: Binding affinity against adenosine A2 receptor in rat striatum by using [3H]NECA as a radioligand; format: tissue-based

Q: With Nc1ncnc2c1ncn2CCO as the molecule, how does the Ki [1] read?
A: > 100 µM

Q: What about the Selectivity ratio [2] of the same molecule?
A: < 0.5

Q: And the Inhibition [3]?
A: 30%

Q: What about the “k'” value [4] of the same molecule?
A: 0.04

Q: And the Ki [5]?
A: 12 µM

Q: And the Ki [6]?
A: 46 µM

Q: Which results are given for CC[C@H](Nc1ncnc2c1ncn2C)c1ccccc1.Cl?
A: Ki [1]: 11 µM; Selectivity ratio [2]: 7.6; Ki [5]: 74 µM; Ki [6]: 84 µM

Q: What does the source list for CCn1cnc2c(NC3CCCCC3)ncnc21?
A: Ki [1]: 2 µM; Selectivity ratio [2]: 5.5; Ki [5]: 8.5 µM; Ki [6]: 11 µM

Q: Which Ki [1] does the source give for Nc1ncnc2c1ncn2-c1ccccc1 here?
A: 19 µM

Q: What about the Selectivity ratio [2] of the same molecule?
A: 2

Q: What about the “k'” value [4] of the same molecule?
A: 0.56

Q: And the Ki [5]?
A: 74 µM

Q: What about the Ki [6] of the same molecule?
A: 38 µM

Q: With Cn1cnc2c(NC3CCCC3)nc(Cl)nc21 as the molecule, how does the Ki [1] read?
A: 0.53 µM

Q: What about the Selectivity ratio [2] of the same molecule?
A: 18

Q: What about the “k'” value [4] of the same molecule?
A: 3.37

Q: And the Ki [5]?
A: 6.3 µM

Q: What about the Ki [6] of the same molecule?
A: 9.3 µM

Q: Which Selectivity ratio [2] does the source give for CCn1cnc2c(NC3CCCC3)ncnc21 here?
A: 39

Q: What about the “k'” value [4] of the same molecule?
A: 1.66

Q: And the Ki [5]?
A: 10.3 µM

Q: And the Ki [6]?
A: 17 µM

Q: Which results are given for Cn1cnc2c(Nc3ccccc3)ncnc21?
A: Ki [1]: 6.9 µM; Selectivity ratio [2]: 9.9; Ki [5]: 107 µM; Ki [6]: 68 µM

Q: With CC[C@@H](Nc1ncnc2c1ncn2C)c1ccccc1.Cl as the molecule, how does the Ki [1] read?
A: 2.5 µM

Q: And the Selectivity ratio [2]?
A: 22

Q: What about the Ki [5] of the same molecule?
A: 25 µM

Q: And the Ki [6]?
A: 55 µM

Q: For Nc1ncnc2c1ncn2C1CCCC1, which Ki [1] is on record?
A: 1.8 µM

Q: And the Selectivity ratio [2]?
A: 4.6

Q: What about the “k'” value [4] of the same molecule?
A: 1.94

Q: What about the Ki [5] of the same molecule?
A: 3.4 µM

Q: And the Ki [6]?
A: 8.2 µM

Q: With c1nc(NC2CCCC2)c2ncn(C3CCCC3)c2n1 as the molecule, how does the Ki [1] read?
A: 1.2 µM

Q: What about the Selectivity ratio [2] of the same molecule?
A: 16

Q: And the “k'” value [4]?
A: 4.99

Q: And the Ki [5]?
A: 5.1 µM

Q: And the Ki [6]?
A: 19 µM

Q: With OCCn1cnc2c(NC3CCCC3)ncnc21 as the molecule, how does the Ki [1] read?
A: 3.3 µM

Q: What about the Selectivity ratio [2] of the same molecule?
A: 14

Q: And the “k'” value [4]?
A: 0.68

Q: And the Ki [5]?
A: 27 µM

Q: What about the Ki [6] of the same molecule?
A: 47 µM

Q: What does the source list for CC[C@@H](Nc1nc(Cl)nc2c1ncn2C)c1ccccc1?
A: Ki [1]: 3.3 µM; Selectivity ratio [2]: 2.1; Ki [5]: 4.3 µM; Ki [6]: 6.8 µM

Q: With Cn1cnc2c(NC3CCCC3)ncnc21 as the molecule, how does the Selectivity ratio [2] read?
A: 26

Q: And the “k'” value [4]?
A: 1.29

Q: What about the Ki [5] of the same molecule?
A: 25 µM

Q: What about the Ki [6] of the same molecule?
A: 11 µM

Q: Which Ki [1] does the source give for c1ccc(-n2cnc3c(NC4CCCC4)ncnc32)cc1 here?
A: 8.7 µM

Q: What about the Selectivity ratio [2] of the same molecule?
A: 9.1

Q: What about the “k'” value [4] of the same molecule?
A: 3.91

Q: And the Ki [5]?
A: 47 µM

Q: What about the Ki [6] of the same molecule?
A: 79 µM

Q: Which results are given for Cn1cnc2c(N)nc(Cl)nc21?
A: Ki [1]: 23 µM; Selectivity ratio [2]: 0.48; k' [4]: 0.22; Ki [5]: 16 µM; Ki [6]: 11 µM

Q: With c1ccc(Nc2ncnc3c2ncn3-c2ccccc2)cc1 as the molecule, how does the Ki [1] read?
A: 6.9 µM

Q: What about the Selectivity ratio [2] of the same molecule?
A: 16

Q: And the Ki [5]?
A: 50 µM

Q: And the Ki [6]?
A: 111 µM

Q: With Cn1cnc2c(N)ncnc21 as the molecule, how does the Ki [1] read?
A: 69 µM

Q: What about the Selectivity ratio [2] of the same molecule?
A: 0.22

Q: And the “k'” value [4]?
A: 0.11

Q: And the Ki [5]?
A: 24 µM

Q: And the Ki [6]?
A: 15 µM

Q: For CCn1cnc2c(N)ncnc21, which Selectivity ratio [2] is on record?
A: 0.19

Q: What about the “k'” value [4] of the same molecule?
A: 0.39

Q: What about the Ki [5] of the same molecule?
A: 5.6 µM

Q: And the Ki [6]?
A: 8.8 µM

Q: Which Ki [1] does the source give for CC[C@H](Nc1ncnc2c1ncn2-c1ccccc1)c1ccccc1 here?
A: 7.2 µM

Q: What about the Selectivity ratio [2] of the same molecule?
A: 2.5

Q: And the Ki [5]?
A: 9.9 µM

Q: What about the Ki [6] of the same molecule?
A: 18 µM

Q: For Cn1cnc2c(NC3CCCCC3)ncnc21, which Selectivity ratio [2] is on record?
A: 14

Q: And the Ki [5]?
A: 21 µM

Q: What about the Ki [6] of the same molecule?
A: 13 µM

Q: With Nc1ncnc2c1ncn2C1CCCO1 (stereo not given) as the molecule, how does the Selectivity ratio [2] read?
A: 0.82

Q: And the “k'” value [4]?
A: 0.21

Q: What about the Ki [5] of the same molecule?
A: 2.4 µM

Q: What about the Ki [6] of the same molecule?
A: 23 µM

Q: Which Ki [1] does the source give for Cn1cnc2c(Nc3ccccc3)nc(Cl)nc21 here?
A: 7 µM

Q: What about the Selectivity ratio [2] of the same molecule?
A: 4.4

Q: What about the Ki [5] of the same molecule?
A: 21 µM

Q: What about the Ki [6] of the same molecule?
A: 31 µM

Q: For CC[C@@H](Nc1ncnc2c1ncn2-c1ccccc1)c1ccccc1, which Ki [1] is on record?
A: 4.7 µM

Q: And the Selectivity ratio [2]?
A: 3.2

Q: What about the Ki [5] of the same molecule?
A: 11 µM

Q: What about the Ki [6] of the same molecule?
A: 15 µM

Q: For c1nc(NC2CCCC2)c2ncn(C3CCCO3)c2n1 (stereo not given), which Ki [1] is on record?
A: 1.7 µM

Q: And the Selectivity ratio [2]?
A: 23

Q: What about the “k'” value [4] of the same molecule?
A: 1.81

Q: And the Ki [5]?
A: 30 µM

Q: What about the Ki [6] of the same molecule?
A: 39 µM

Q: With CC[C@H](Nc1nc(Cl)nc2c1ncn2C)c1ccccc1 as the molecule, how does the Ki [1] read?
A: 2.8 µM

Q: What about the Selectivity ratio [2] of the same molecule?
A: 4.3

Q: What about the Ki [5] of the same molecule?
A: 17 µM

Q: And the Ki [6]?
A: 12 µM
